How the values were obtained:
S. aureus [1] = assay: MIC determination by serial dilution in LB broth; format: cell-based, S. aureus (ATCC 25923); settings: Staphylococcus aureus, Table 5, 24 h, 37° C.
Source text: (§1) • Menthol, Guangdong Huaqingyuan Biotechnology Co., Ltd. • Thymol, Guangdong Huaqingyuan Biotechnology Co., Ltd. • Bromoisobutyryl bromide (BiBB), Aldrich • CuBr, Aldrich • N,N,N′,N″,N″-pentamethyldiethylenetriamine (PMDETA), Aldrich • 2-(N,N-dimethylamino)ethyl methacrylate (DMAEMA), Aldrich • Gram-positive 2 bacteria (S. aureus, ATCC 25923), China Center of Industrial Culture, commercially available from Guangdong Huankai Microbial Sci.&Tech. Co., Ltd., Guangdong, China • methicillin-resistant Staphylococcus aureus (ATCC 43300), China Center of Industrial Culture, commercially available from Guangdong Huankai Microbial Sci.&Tech. Co., Ltd., Guangdong, China • Gram-negative bacteria (E. coli, ATCC 43894), China Center of Industrial Culture, commercially available from Guangdong Huankai Microbial Sci.&Tech. Co., Ltd., Guangdong, China.
(§2) MIC (minimum inhibitory concentration) was used as an effective qualitative method of antibacterial ability assessment. MIC of antibacterial polymers were determined against S. aureus and E. coli by a serial dilution method. Bacteria LB agar plates were prepared from glycerol stock. Bacteria were inoculated with LB broth in an inoculation shaker at 200 rpm and 37° C., overnight.

MRSA [2] = assay: MBC determination; format: cell-based, methicillin-resistant Staphylococcus aureus (ATCC 43300); settings: Staphylococcus aureus, read-out: MBC MRSA
Source text: as §1
(§3) The MBC was defined as the lowest concentration of an antibacterial agent that kills bacteria in the planktonic culture. MBC of antibacterial polymers and control were determined against S. aureus and E. coli by the reported method in publication “Antibacterial and Bacterially Antiadhesive Cotton Fabrics Coated by Cationic Fluorinated Polymers. ACS Appl Mater Interfaces 2018, 10 (7), 6124-6136.”

E. coli [3] = assay: MBC determination; format: cell-based, E. coli (ATCC 43894); settings: Escherichia coli, read-out: MBC E. coli
Source text: as §1, §3

MRSA [4] = assay: MIC determination by serial dilution in LB broth; format: cell-based, methicillin-resistant Staphylococcus aureus (ATCC 43300); settings: Staphylococcus aureus, read-out: MIC MRSA
Source text: as §1
MIC (minimum inhibitory concentration) was used as an effective qualitative method of antibacterial ability assessment. MIC of antibacterial polymers were determined against S. aureus and E. coli by a serial dilution method. Bacteria LB agar plates were prepared from glycerol stock. Bacteria were inoculated with LB broth in an inoculation shaker at 200 rpm and 37° C., overnight. […] MIC was determined with no visible growth at 600 nm by spectrophotometer. […]

E. coli [5] = assay: microbe, parasite or virus in culture; format: cell-based, E. coli (ATCC 43894); settings: Escherichia coli, 24 h, read-out: MIC E. coli
Source text: as §1, §2

S. aureus [6] = assay: MBC determination; format: cell-based, S. aureus (ATCC 25923); settings: Staphylococcus aureus; Table 5
Source text: as §1, §3

Cc1ccc(C(C)C)c(O)c1 [Thymol]
250 µg/mL: MIC (S. aureus [1]) | MBC (MRSA [2]) | MBC (E. coli [3]) | MIC (MRSA [4]) | MIC (E. coli [5]) | MBC (S. aureus [6])
